Assay results: patent publication US11180504B2 (ORCHID PHARMA LTD., priority 2016, dated 2021)
Values after ≈ are worked out from the molar mass of the structure shown.

Columns and labels:
[1] = test system: carbapenem sensitive Escherichia coli; experiment: MIC by broth micro-dilution (CLSI), carbapenem sensitive E. coli; format: cell-based; details: Escherichia coli, ATCC25922, ESBL −ve E. coli ATCC25922; read-out: MIC
[2] = test system: methicillin-sensitive Staphylococcus aureus; experiment: MIC by broth micro-dilution (CLSI), methicillin-sensitive S. aureus; format: cell-based; details: Staphylococcus aureus, ATCC 29213 / MSSA, MSSA S. aureus ATCC29213; read-out: MIC
[3] = test system: carbapenem sensitive Pseudomonas aeruginosa; experiment: MIC by broth micro-dilution (CLSI), carbapenem sensitive P. aeruginosa; format: cell-based; details: Pseudomonas aeruginosa, ATCC27853, Meropenem susceptible P. aeruginosa ATCC27853; read-out: MIC
[4] = test system: carbapenemase producing K. pneumoniae; experiment: MIC by broth micro-dilution (CLSI), carbapenemase producing K. pneumoniae; format: cell-based, Klebsiella pneumoniae; details: Klebsiella pneumoniae, ATCCBAA1705, KPC-2 K. pneumoniae ATCC BAA-1705; read-out: MIC

| MIC [1] [µg/mL] | MIC [2] [µg/mL] | MIC [3] [µg/mL] | MIC [4] [µg/mL] | Structure (SMILES) |
| --- | --- | --- | --- | --- |
| 0.5 (≈ 0.937 µM) | 4 (≈ 7.5 µM) | 4 (≈ 7.5 µM) | 4 (≈ 7.5 µM) | C[C@@H](NC(=O)Cn1cnnn1)[C@H]1C(=O)N2C(C(=O)O)=C(S[C@@H]3CN[C@H](C(=O)N4CC[C@H](N)C4)C3)[C@H](C)[C@H]12 [Example 324] |
| 4 (≈ 7.07 µM) | 8 (≈ 14.1 µM) | > 128 | 64 (≈ 113 µM) | CO/N=C(\C(=O)N[C@H](C)[C@H]1C(=O)N2C(C(=O)O)=C(S[C@@H]3CN[C@H](C(=O)N(C)C)C3)[C@H](C)[C@H]12)c1csc(N)n1 [Example 325, (4R,5S,6R)-6-((R) - 1-((Z)-2-(2-aminothiazol-4-yl)-2-(methoxyimino)acetamido)ethyl)-3-((3S,5S)-5-(dimethylcarbamoyl)pyrrolidin-3-ylthio)-4-methyl-7-oxo-1-azabicyclo[3.2.0]hept-2-ene-2-carboxylic acid] |
| 1 (≈ 2.22 µM) | 2 (≈ 4.44 µM) | 64 (≈ 142 µM) | 16 (≈ 35.5 µM) | C[C@H]([C@H]1C(=O)N2C(C(=O)O)=C(S[C@@H]3CN[C@H](C(=O)N(C)C)C3)[C@H](C)[C@H]12)n1nnc(N)n1 [Example 326, (4R,5S,6S)-6-((R) - 1-(5-amino-2H-tetrazol-2-yl)ethyl)-3-((3S,5S)-5-(dimethylcarbamoyl)pyrrolidin-3-ylthio)-4-methyl-7-oxo-1-azabicyclo[3.2.0]hept-2-ene-2-carboxylic acid] |
| 2 (≈ 4.07 µM) | 1 (≈ 2.03 µM) | 64 (≈ 130 µM) | 32 (≈ 65.1 µM) | C[C@H]([C@H]1C(=O)N2C(C(=O)O)=C(S[C@@H]3CN[C@H](C(=O)N4CC[C@@H](N)C4)C3)[C@H](C)[C@H]12)n1nnc(N)n1 [Example 327, (4R,5S,6S)-6-((R) - 1-(5-amino-2H-tetrazol-2-yl)ethyl)-3-((3S,5S)-5-((R)-3-aminopyrrolidine-1-carbonyl)pyrrolidin-3-ylthio)-4-methyl-7-oxo-1-azabicyclo[3.2.0]hept-2-ene-2-carboxylic acid] |
| 2 (≈ 4.2 µM) | 4 (≈ 8.39 µM) | 32 (≈ 67.1 µM) | 4 (≈ 8.39 µM) | C[C@H]([C@H]1C(=O)N2C(C(=O)O)=C(S[C@@H]3CN[C@H](C(=O)N4CC[C@@H](N)C4)C3)[C@H](C)[C@H]12)n1cnnn1 [Example 328, (4R,5S,6S)-6-((R) - 1-(1H-tetrazol-1-yl)ethyl)-3-((3S,5S)-5-((R)-3-aminopyrrolidine-1-carbonyl)pyrrolidin-3-ylthio)-4-methyl-7-oxo-1-azabicyclo[3.2.0]hept-2-ene-2-carboxylic acid] |
| 0.25 (≈ 0.455 µM) | 8 (≈ 14.6 µM) | 8 (≈ 14.6 µM) | 2 (≈ 3.64 µM) | C[C@@H](NC(=O)Cn1cnnn1)[C@H]1C(=O)N2C(C(=O)O)=C(S[C@@H]3CN[C@H](C(=O)N4C[C@@H](N)[C@H](O)C4)C3)[C@H](C)[C@H]12 [Example 329, (4R,5S,6R)-6-((R) - 1-(2-(1H-tetrazol-1-yl)acetamido)ethyl)-3-((3S,5S)-5-((3R,4R)-3-amino-4-hydroxypyrrolidine-1-carbonyl)pyrrolidin-3-ylthio)-4-methyl-7-oxo-1-azabicyclo[3.2.0]hept-2-ene-2-carboxylic acid] |
| 0.25 (≈ 0.493 µM) | 8 (≈ 15.8 µM) | 64 (≈ 126 µM) | 2 (≈ 3.95 µM) | Cc1nnnn1CC(=O)N[C@H](C)[C@H]1C(=O)N2C(C(=O)O)=C(S[C@@H]3CN[C@H](C(=O)N(C)C)C3)[C@H](C)[C@H]12 [Example 330, (4R,5S,6R)-3-((3S,5S)-5-(dimethylcarbamoyl)pyrrolidin-3-ylthio)-4-methyl-6-((R) - 1-(2-(5-methyl-1H-tetrazol-1-yl)acetamido)ethyl)-7-oxo-1-azabicyclo[3.2.0]hept-2-ene-2-carboxylic acid] |
| 0.25 (≈ 0.457 µM) | 4 (≈ 7.3 µM) | 8 (≈ 14.6 µM) | 4 (≈ 7.3 µM) | Cc1nnnn1CC(=O)N[C@H](C)[C@H]1C(=O)N2C(C(=O)O)=C(S[C@@H]3CN[C@H](C(=O)N4CC[C@@H](N)C4)C3)[C@H](C)[C@H]12 [Example 331, (4R,5S,6R)-3-((3S,5S)-5-((R)-3-aminopyrrolidine-1-carbonyl)pyrrolidin-3-ylthio)-4-methyl-6-((R) - 1-(2-(5-methyl-1H-tetrazal-1-yl)acetamido)ethyl)-7-oxo-1-azabicyclo[3.2.0]hept-2-ene-2-carboxylic acid] |
| 1 (≈ 1.78 µM) | 8 (≈ 14.2 µM) | 8 (≈ 14.2 µM) | 4 (≈ 7.12 µM) | C[C@@H](NC(=O)Cn1cnnn1)[C@H]1C(=O)N2C(C(=O)O)=C(S[C@@H]3CN[C@H](C(=O)N4CCC(C)(N)CC4)C3)[C@H](C)[C@H]12 [Example 332, (4R,5S,6R)-6-((R) - 1-(2-(1H-tetrazol-1-yl)acetamido)ethyl)-3-((3S,5S)-5-(4-amino-4-methylpiperidine-1-carbonyl)pyrrolidin-3-ylthio)-4-methyl-7-oxo-1-azabicyclo[3.2.0]hept-2-ene-2-carboxylic acid] |
| 0.5 (≈ 0.916 µM) | 8 (≈ 14.7 µM) | 4 (≈ 7.33 µM) | 4 (≈ 7.33 µM) | C[C@@H](NC(=O)Cn1cnnn1)[C@H]1C(=O)N2C(C(=O)O)=C(S[C@@H]3CN[C@H](C(=O)N4CC5C(N)C5C4)C3)[C@H](C)[C@H]12 (stereo partly drawn) [Example 333, (4R,5S,6R)-6-((R) - 1-(2-(1H-tetrazol-1-yl)acetamido)ethyl)-3-((3S,5S)-5-(6-amino-3-azabicyclo[3.1.0]hexane-3-carbonyl)pyrrolidin-3-ylthin)-4-methyl-7-oxo-1-azabicyclo[3.2.0]hept-2-ene-2-carboxylic acid] |
| 0.5 (≈ 0.831 µM) | 4 (≈ 6.65 µM) | 128 (≈ 213 µM) | 32 (≈ 53.2 µM) | C[C@@H](NC(=O)Cn1nnc(C(F)(F)F)n1)[C@H]1C(=O)N2C(C(=O)O)=C(S[C@@H]3CN[C@H](C(=O)N4CC[C@@H](N)C4)C3)[C@H](C)[C@H]12 [Example 334, (4R,5S,6R)-3-((3S,5S)-5-((R)-3-aminopyrrolidine-1-carbonyl)pyrrolidin-3-ylthio)-4-methyl-7-oxo-6-((R) - 1-(2-(5-(trifluoromethyl)-2H-tetrazol-2-yl)acetamido)ethyl) - 1-azabicyclo[3.2.0]hept-2-ene-2-carboxylic acid] |
| 1 (≈ 1.78 µM) | 4 (≈ 7.14 µM) | > 128 | 64 (≈ 114 µM) | C[C@@H](NC(=O)Cn1nnc(C(F)(F)F)n1)[C@H]1C(=O)N2C(C(=O)O)=C(S[C@@H]3CN[C@H](C(=O)N(C)C)C3)[C@H](C)[C@H]12 [Example 335, (4R,5S,4R)-3-((3S,5S)-5-(dimethylcarbamoyl)pyrrolidin-3-ylthio)-4-methyl-7-oxo-6-((R) - 1-(2-(5-(trifluoromethyl)-2H-tetrazol-2-yl)acetamido)ethyl) - 1-azabicyclo[3.2.0]hept-2-ene-2-carboxylic acid] |
| 1 (≈ 1.83 µM) | 4 (≈ 7.3 µM) | 8 (≈ 14.6 µM) | 4 (≈ 7.3 µM) | C[C@@H](NC(=O)Cn1cnnn1)[C@H]1C(=O)N2C(C(=O)O)=C(S[C@@H]3CN[C@H](C(=O)N4CCC[C@@H](N)C4)C3)[C@H](C)[C@H]12 [Example 336, (4R,5S,6R)-6-((R) - 1-(2-(1H-tetrazol-1-yl)acetamido)ethyl)-3-((3S,5S)-5-((R)-3-aminopiperidine-1-carbonyl)pyrrolidin-3-ylthio)-4-methyl-7-oxo-1-azabicyclo[3.2.0]hept-2-ene-2-carboxylic acid] |
| 0.5 (≈ 1.09 µM) | 2 (≈ 4.34 µM) | 32 (≈ 69.5 µM) | 1 (≈ 2.17 µM) | C[C@@H]1C(S[C@@H]2CN[C@H](C(=O)N(C)C)C2)=C(C(=O)O)N2C(=O)[C@H]([C@@H](C)NC(=O)C(F)F)[C@@H]12 [Example 337, (4S,5S,6R)-6-((R) - 1-(2,2-difluoroacetamido)ethyl)-3-((3S,5S)-5-(dimethylcarbamoyl)pyrrolidin-3-ylthio)-4-methyl-7-oxo-1-azabicyclo[3.2.0]hept-2-ene-2-carboxylic acid] |
| 2 (≈ 3.54 µM) | 8 (≈ 14.2 µM) | 128 (≈ 227 µM) | 32 (≈ 56.7 µM) | CCOC(=O)c1nnnn1CC(=O)N[C@H](C)[C@H]1C(=O)N2C(C(=O)O)=C(S[C@@H]3CN[C@H](C(=O)N(C)C)C3)[C@H](C)[C@H]12 [Example 338, (4R,5S,6R)-3-((3S,5S)-5-(dimethylcarbamoyl)pyrrolidin-3-ylthio)-6-((R) - 1-(2-(5-(ethoxycarbonyl) - 1H-tetrazol-1-yl)acetamido)ethyl)-4-methyl-7-oxo-1-azabicyclo[3.2.0]hept-2-ene-2-carboxylic acid] |
| 1 (≈ 1.65 µM) | 8 (≈ 13.2 µM) | 32 (≈ 52.8 µM) | 32 (≈ 52.8 µM) | CCOC(=O)c1nnnn1CC(=O)N[C@H](C)[C@H]1C(=O)N2C(C(=O)O)=C(S[C@@H]3CN[C@H](C(=O)N4CC[C@@H](N)C4)C3)[C@H](C)[C@H]12 [Example 339, (4R,5S,6R)-3-((3S,5S)-5-((R)-3-aminopyrrolidine-1-carbonyl)pyrrolidin-3-ylthio)-6-((R) - 1-(2-(5-(ethoxycarbonyl) - 1H-tetrazol-1-yl)acetamido)ethyl)-4-methyl-7-oxo-1-azabicyclo[3.2.0]bept-2-ene-2-carboxylic acid] |
| 1 (≈ 1.83 µM) | 8 (≈ 14.6 µM) | 4 (≈ 7.3 µM) | 4 (≈ 7.3 µM) | C[C@@H](NC(=O)Cn1cnnn1)[C@H]1C(=O)N2C(C(=O)O)=C(S[C@@H]3CN[C@H](C(=O)N4CCC(N)CC4)C3)[C@H](C)[C@H]12 [Example 340, (4R,5S,6R)-6-((R) - 1-(2-(1H-tetrazol-1-yl)acetamido)ethyl)-3-((3S,5S)-5-(4-aminopiperidine-1-carbonyl)pyrrolidin-3-ylthio)-4-methyl-7-oxo-1-azabicyclo[3.2.0]hept-2-ene-2-carboxylic acid] |
